The test system of assay [1] is Spathiphyllum embryogenic calluses. Put plainly: Effect of KODA treatment time on differentiation from Spathiphyllum callus to adventitious embryo and germinants. In kind it is cell-based. As to conditions: for Dehydrated adventitious embryo weight per flask: embryos recovered 6 weeks after planting in differentiation medium. The procedure: Cultured seedlings subcultured under conditions of 25° C. in a dark location (photosynthetic photon flux density: 5.7 μmole/m^2/sec, day length: 16 hours) in a solid medium obtained by adding 3% sucrose and 0.8% agar (Wako Pure Chemical Industries, Tokyo, Japan) to MS (Murashige and Skoog) medium placed in a flat box (internal volume: 300 ml) manufactured by Asahi Techno Glass followed by adjusting the pH to 5.8 were used as cultured Spathiphyllum seedlings (variety: Double Take).
Sucrose (3%), 2,4-dichlorophenoxyacetic acid (4 ppm), benzyladenine (BA) (0.2 ppm), casein acid hydrolysate (100 ppm) and 5 mM 2-morpholinoethanesulfonic acid monohydrate (MES) were added to MS medium solidified with 0.8% agar to obtain a medium for callus induction and growth (to be referred to as “subculture medium”, pH 5.8). Leaf sheaths were collected from the cultured seedlings during week 4 of subculturing by peeling from the stump and using a roughly 2 cm section containing the peeled portion (leaf sheath base) as an explant. The explants were then planted in a flat box containing the subculture medium (50 ml). When the seedlings were cultured for 8 weeks in a dark location at 25° C., calluses were induced at the peeled portions of the planted seedlings. Embryogenic calluses were selected by subculturing these calluses in 0.2 g/container each of subculture medium and culturing for 1 month. The embryogenic calluses were able to be maintained for 2 years while retaining adventitious embryo induction potency by subculturing to the subculture medium every 4 weeks.
0.05 g aliquots of the embryonic calluses were planted in 500 ml Erlenmeyer flasks containing 160 ml of MS liquid medium containing sucrose (1%), fructose (1.1%), BA (0.1 ppm) and MES (5 mM) (pH 5.8, to be referred to as “differentiation medium”), followed by shake culturing (80 rpm) for 6 weeks at 25° C. in a dark location (day length: 16 hours, synthetic photon flux density: 22.8 μmole/m^2/sec) to obtain adventitious embryos. 0.2 g aliquots of these adventitious embryos were implanted in MS medium containing sucrose (3%) and obtained by solidifying with agar (0.8%) (pH 5.8, to be referred to as “germination medium”) followed by culturing for 8 weeks at 25° C. in a dark location (day length: 16 hours, photosynthetic photon flux density: 5.7 μmole/m^2/sec) to cause the adventitious embryos to germinate and obtain complete plants.
Embryogenic calluses subcultured in subculture medium were subcultured in fresh subculture medium followed by dropping a 3 ppm aqueous solution of KODA onto the calluses after 1 week (7 days), 2 weeks (14 days) or 3 weeks ([…]). The cultured calluses were planted in liquid differentiation medium 3 weeks after the start of subculturing, and the differentiated adventitious embryos were recovered 6 weeks later (FIG. 1), dehydrated and weighed after dehydrating. The adventitious embryos were then planted in germination medium and the numbers of resulting germinants were counted. The number of germinants per 1 g of dehydrated adventitious embryos was calculated from the measurement results (FIG. 2). […] The effect of KODA on inducing adventitious embryos in calluses was therefore thought to be specific to the time at which it is applied.

The test system is the same in assay [2]. As to the kind of experiment: Effect of KODA concentration on differentiation from Spathiphyllum callus to normally regenerated plant bodies. It counts as cell-based. As to conditions: 0.03, 0.3 or 3 ppm KODA dropped onto calluses; 8 weeks. The source says:
Embryogenic calluses subcultured in subculture medium were planted in fresh differentiation medium followed by dropping a 0.03 ppm, 0.3 ppm or 3 ppm aqueous solution of KODA onto the calluses and recording the number of normally regenerated plant bodies 8 weeks later.

In assay [3] the test system is Peucedanum japonicum greening tissue masses. Put plainly: Effect of KODA on differentiation from callus (greening tissue masses) in Peucedanum japonicum. Conditions: 1 μM KODA immersion. It counts as cell-based. The procedure: Peucedanum japonicum seeds from Yonaguni Island in Okinawa Prefecture were planted in artificial soil (Metro-Mix 360, Sun Grow Horticulture Canada Ltd.) and allowed to germinate under conditions of 20° C. and a 12-hour light-dark cycle. Two months later, the seedling plants were taken out, only the above ground portion was washed well with water, and after disinfecting with 70% alcohol (10 seconds) and a 10-fold dilution of sodium hypochlorite (7 minutes), the seedling plants were rinsed four times with pure water. The petiols were cut out and a cut measuring about 5 mm in length was aseptically made therein followed by planting in MS medium (Wako Pure Chemical Industries, solidified with 0.7% agar) containing 2,4-dichlorophenoxyacetic acid (0.022 mg/L) and kinetin (10.75 mg/L) solidified with 0.7% agar. The petiols were cultured for 2 months under conditions of 25° C. and a light-dark cycle of 12 hours to grow greening tissue masses containing incomplete leaf tissue. Two months later, the greening tissue masses were immersed in 1 μM KODA (KODA treatment group) or water (control group), and placed on MS medium (solidified with 0.7% agar) to which benzyladenine (BA) was added to a concentration of 2 ppm with indoleacetic acid (IAA) to a concentration of 0.1 ppm, 0.5 ppm or 1 ppm. As can be understood from the table, although a large number of differentiated greening plant bodies were obtained from greening tissue masses immersed in KODA, only a small number of differentiated plant bodies were obtained in the control group (water) in the case of 1.0 ppm indoleacetic acid+2.0 ppm benzyladenine.

Another assay has as its system tobacco callus. Put plainly: Effect of KODA on differentiation from tobacco callus. It counts as cell-based, Nicotiana tabacum. As to conditions: 100 μM KODA immersion. The procedure: After washing tobacco (Nicotiana tabacum) seeds with 70% ethanol, the surfaces of the seeds were sterilized for 3 minutes with 5% sodium hypochlorite and 0.05% Tween 20 followed by washing 5 times with sterilized water. After washing, the seeds were immersed in an aqueous KODA solution (100 μM) followed by planting the washed seeds on solid MS medium (Wako Pure Chemical Industries) containing 3% sucrose, 0.8% agar (Wako Pure Chemical Industries) and 2,4-dichlorophenoxyacetic acid (Kanto Chemical, 3 ppm) with kinetin (Nakarai Tesque, 0.1 ppm) and adjusted to pH 5.7 to induce calluses for 3 weeks under conditions of 25° C. and a light-dark cycle of 16 hours.
The above ground portions of the tobacco seedlings that underwent callus induction were removed, and only the root portions in which calluses were present were treated by immersing in 100 μM KODA (KODA treatment group) or water (control group) followed by inducing differentiation of the above ground portions under conditions of 25° C. and a light-dark cycle of 16 hours in solid differentiation medium obtained by adding 3% sucrose, 0.8% agar (Wako Pure Chemical Industries), […] (Nacalai Tesque, 0.2 ppm) and 6-benzyladenine (Nacalai Tesque, 2 ppm) to MS medium contained in plastic Petri dishes and adjusting to pH 5.7. Culturing in the differentiation medium was carried out by transferring to fresh differentiation medium after culturing for 2 weeks, namely for a total of 4 weeks. The resulting above ground portions were excised with a scalpel. The excised above ground portions were immersed in 100 μM aqueous KODA solution (KODA treatment group) or water (control group) followed by planting it in MS medium (100 mL) contained in culture bottles (CB-3, As One), which is prepared by adding sucrose (3%) to MS medium, and adjusting pH to 5.7, and is solidified with 0.8% agar, and then cultured for 4 weeks under conditions of 25° C. and light-dark cycle of 16 hours so as to differentiate below ground portions. […]

Where [4] appears, read: normal individuals, freeze-dried.

`CC/C=C\C/C=C\CC(=O)C(O)CCCCCCCC(=O)O` (centres unmarked) [KODA, 9-hydroxy-10-oxo-12(Z),15(Z)-octadecadienoic acid]: the “No. of germinants per flask” value in assay [1] (3 ppm KODA dropped 1 week after subculture) turned out to be 431; in assay [1] (3 ppm KODA dropped 2 weeks after subculture), 702; in assay [1] (3 ppm KODA dropped 3 weeks after subculture) it was 578. Moreover, the entries for the “Dehydrated adventitious embryo weight per flask” value in assay [1] (3 ppm aqueous KODA dropped onto calluses 1 week after subculture), in assay [1] (3 ppm aqueous KODA dropped onto calluses 2 weeks after subculture) and in assay [1] (3 ppm aqueous KODA dropped onto calluses 3 weeks after subculture) were 7.1 g, 7.2 g and 6.8 g, respectively. For the same molecule, the “adventitious embryos recovered in comparison with control group (FIG. 1)” value in assay [1] (KODA treatment group, after two weeks) was “A large number of adventitious embryos were recovered”. The “number of redifferentiated (normally regenerated) plant bodies versus control (FIG. 4)” value in assay [2] is given as “increase in comparison with a control group at each concentration”. The figures for the “No. of redifferentiated greening plant bodies” value in assay [3] (IAA (0.1 ppm) + BA (2.0 ppm)), in assay [3] (IAA (0.5 ppm) + BA (2.0 ppm)) and in assay [3] (IAA (1.0 ppm) + BA (2.0 ppm)) were 29, 20 and 27, respectively. The “normal individuals among the redifferentiated individuals” value in the assay with tobacco callus (control group 30%) was found to be 60%. The “dry weight of above ground portions versus control (FIG. 6)” value with tobacco callus (setting [4]) is recorded as “no significant difference at a level of significance of 5%”. Further, the “dry weight of below ground portions versus control (FIG. 6)” value in the assay on tobacco callus (setting [4]) is “a significant difference was confirmed at a level of significance of 5%”.

The values are drawn from patent publication US20140134735A1, “Plant Cell Differentiation Promoter” (SHISEIDO COMPANY, LTD., priority 2011, published 2014).
